# Experimental data taken from publication PMC8293625, “HLA class-I-peptide stability mediates CD8^+ T cell immunodominance hierarchies and facilitates HLA-associated immune control of HIV” (Cell Reports, 2021).
# Like-named read-outs stand apart in the source and are kept apart here.
# What was measured:
# [1] = tested on: HLA class-I alleles A*0101, A*0201, A*0301, A*2402, B*0702, B*0801, B*1402, B*1501, B*2705, B*3501, B*3901, B*4001, B*4402, B*5201, B*5701, B*5801, B*8101 …; type: cell-based, human; settings: relative anti-HLA MFI; for Relative HLA MFI (10 uM): peptide 10 uM; for Relative HLA MFI (100 uM): peptide 100 uM
# HLA-B*0702 = HLA-B*0702 (Homo sapiens, UniProt P01889); assay: Cell-based HLA class I-peptide concentration-based stability assay (TAP-deficient mono-allelic 721.221 cells); settings: HLA B*07 mono-allelic TAP-deficient 721.221 cells, relative anti-HLA MFI; for Relative HLA MFI (10 uM): peptide 10 uM; for Relative HLA MFI (100 uM): peptide 100 uM
# Protocol: (§1) Controls without peptide, but the corresponding concentration of DMSO, were performed in parallel.
# HLA-A*0301 = HLA-A*0301 (Homo sapiens, UniProt P04439); assay: as above; settings: HLA A*03 mono-allelic TAP-deficient 721.221 cells, relative anti-HLA MFI; for Relative HLA MFI (10 uM): peptide 10 uM; for Relative HLA MFI (100 uM): peptide 100 uM
# Protocol: as §1
# HLA-B*5701 = HLA-B*5701 (Homo sapiens, UniProt P01889, D201E/D98Y/E176V/E187L/E204Q/E69M/E70A/G107R/I90N/K202T/L105A/L119I/N104I/N87E/Q89R/Q94S/R106L/R155S/R180L/R86G/S101N/S121V/S35A/S48A/T118I/V36M/Y140S/Y91M); assay: as above; settings: section B*57, TAP-deficient mono-allelic 721.221 cells, relative anti-HLA MFI; for Relative HLA MFI (10 uM): peptide 10 uM; for Relative HLA MFI (100 uM): peptide 100 uM
# HLA-B*8101 = HLA-B*8101 (Homo sapiens, UniProt P01889, A269T/D138N/E176V/R180L/T167S/W171L); assay: as above; settings: relative anti-HLA MFI; for Relative HLA MFI (10 uM): section B*81, peptide 10 uM; for Relative HLA MFI (100 uM): section B*81, peptide 100 uM
# HLA-B*8101, sequence (P01889 25-362 D138N/T167S/W171L/E176V/R180L/A269T limits assumed): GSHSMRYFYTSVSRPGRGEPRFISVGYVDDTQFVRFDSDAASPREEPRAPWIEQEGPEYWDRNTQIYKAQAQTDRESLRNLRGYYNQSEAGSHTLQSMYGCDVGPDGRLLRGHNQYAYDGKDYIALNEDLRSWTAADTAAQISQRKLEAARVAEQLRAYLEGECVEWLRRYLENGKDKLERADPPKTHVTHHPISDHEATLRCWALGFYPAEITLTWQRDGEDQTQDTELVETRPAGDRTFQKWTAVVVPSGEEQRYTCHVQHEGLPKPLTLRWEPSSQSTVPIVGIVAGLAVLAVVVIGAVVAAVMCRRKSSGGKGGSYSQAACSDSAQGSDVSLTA
# [2] = HLA A*02 mono-allelic TAP-deficient 721.221 cells
# [3] = HLA B*08 mono-allelic TAP-deficient 721.221 cells
# [4] = HLA B*15 mono-allelic TAP-deficient 721.221 cells
# [5] = HLA B*39 mono-allelic TAP-deficient 721.221 cells
# [6] = HLA B*27 mono-allelic TAP-deficient 721.221 cells
# [7] = HLA B*35 mono-allelic TAP-deficient 721.221 cells
# [8] = HLA B*40 mono-allelic TAP-deficient 721.221 cells
# [9] = section Cw*07, TAP-deficient mono-allelic 721.221 cells
# [10] = HLA A*01 mono-allelic TAP-deficient 721.221 cells
sequence,measurement,setting,value
GAFDLSFFL [GL9],Relative HLA MFI (10 uM),[1]; [2],0.2773
same,Relative HLA MFI (100 uM),[1]; [2],0.6097
same,Relative HLA MFI (10 uM),[1]; [3],0.3886
same,Relative HLA MFI (100 uM),[1]; [3],0.8634
same,Relative HLA MFI (10 uM),[1]; [4],0.06703
same,Relative HLA MFI (100 uM),[1]; [4],0.1423
same,Relative HLA MFI (10 uM),[1]; [5],0.6524
same,Relative HLA MFI (100 uM),[1]; [5],1
same,Relative HLA MFI (10 uM),HLA-B*0702,0.1155
same,Relative HLA MFI (100 uM),HLA-B*0702,0.2918
RLRDLLLIVTR [RR11],Relative HLA MFI (10 uM),HLA-A*0301,0
same,Relative HLA MFI (100 uM),HLA-A*0301,0.02843
KTKPPLPSVKK [KK11],Relative HLA MFI (10 uM),HLA-A*0301,0.3455
same,Relative HLA MFI (100 uM),HLA-A*0301,0.9676
QAVRIIKILY [QY10],Relative HLA MFI (10 uM),HLA-B*5701,0
same,Relative HLA MFI (100 uM),HLA-B*5701,0
KAIGTVLV [KV8],Relative HLA MFI (10 uM),HLA-B*5701,0.05212
same,Relative HLA MFI (100 uM),HLA-B*5701,0
TPVNIIGRNML [TL11],Relative HLA MFI (10 uM),HLA-B*8101,0.7114
same,Relative HLA MFI (100 uM),HLA-B*8101,0.9995
AVRHFPRIW [AW9],Relative HLA MFI (10 uM),HLA-B*5701,0.4343
same,Relative HLA MFI (100 uM),HLA-B*5701,0.7818
AIFQSSMTK [ATK9],Relative HLA MFI (10 uM),HLA-A*0301,0.3479
same,Relative HLA MFI (100 uM),HLA-A*0301,0.6619
RGPGRAFVTI [RI10],Relative HLA MFI (10 uM),[1]; [2],0.001172
same,Relative HLA MFI (100 uM),[1]; [2],0.4741
same,Relative HLA MFI (10 uM),[1]; [6],0.4976
same,Relative HLA MFI (100 uM),[1]; [6],0.7237
same,Relative HLA MFI (10 uM),HLA-B*0702,0.02584
same,Relative HLA MFI (100 uM),HLA-B*0702,0.4954
IPRRIRQGL [IL9],Relative HLA MFI (10 uM),[1]; [7],0.6542
same,Relative HLA MFI (100 uM),[1]; [7],0.68
same,Relative HLA MFI (10 uM),[1]; [8],0.518
same,Relative HLA MFI (100 uM),[1]; [8],0.8038
same,Relative HLA MFI (10 uM),HLA-B*0702,0.3754
same,Relative HLA MFI (100 uM),HLA-B*0702,1
AVDLSHFLK [ALK9],Relative HLA MFI (10 uM),HLA-A*0301,0.274
same,Relative HLA MFI (100 uM),HLA-A*0301,0.7814
STTVKAACWW [SW10],Relative HLA MFI (10 uM),HLA-B*5701,0.3518
same,Relative HLA MFI (100 uM),HLA-B*5701,0.4995
IATESIVIW [IAW9],Relative HLA MFI (10 uM),HLA-B*5701,0.4853
same,Relative HLA MFI (100 uM),HLA-B*5701,1
FSPEVIPMF [FF9],Relative HLA MFI (10 uM),HLA-B*5701,0.003257
same,Relative HLA MFI (100 uM),HLA-B*5701,0.02714
FPVTPQVPLR [FR10],Relative HLA MFI (10 uM),HLA-B*0702,0.1079
same,Relative HLA MFI (100 uM),HLA-B*0702,0.5897
HPRVSSEVHI [HI10],Relative HLA MFI (10 uM),HLA-B*0702,0.007599
same,Relative HLA MFI (100 uM),HLA-B*0702,0.6565
TPGPGVRYPL [TL10],Relative HLA MFI (10 uM),HLA-B*0702,0
same,Relative HLA MFI (100 uM),HLA-B*0702,0.1231
AIIRILQQL [AL9],Relative HLA MFI (10 uM),[1]; [2],0.2439
same,Relative HLA MFI (100 uM),[1]; [2],0.5341
same,Relative HLA MFI (10 uM),HLA-B*5701,0
same,Relative HLA MFI (100 uM),HLA-B*5701,0.004343
FPRIWLHGL [FL9 (Vpr)],Relative HLA MFI (10 uM),HLA-B*0702,0.2812
same,Relative HLA MFI (100 uM),HLA-B*0702,0.7264
KAFSPEVI [KI8],Relative HLA MFI (10 uM),HLA-B*5701,0.06623
same,Relative HLA MFI (100 uM),HLA-B*5701,0.2215
LRPMTYKAA [LA9],Relative HLA MFI (10 uM),[1]; [6],0.09012
same,Relative HLA MFI (100 uM),[1]; [6],0.09773
same,Relative HLA MFI (10 uM),HLA-B*8101,0.0372
same,Relative HLA MFI (100 uM),HLA-B*8101,0.09141
SPRTLNAWV [SV9],Relative HLA MFI (10 uM),HLA-B*0702,0
same,Relative HLA MFI (100 uM),HLA-B*0702,0.114
FPRIWLHGL [FL9],Relative HLA MFI (10 uM),HLA-B*8101,0.69
same,Relative HLA MFI (100 uM),HLA-B*8101,1
LTFGWCFKL [LL9],Relative HLA MFI (10 uM),HLA-B*5701,0
same,Relative HLA MFI (100 uM),HLA-B*5701,0
YTPGPGIRY [YY9],Relative HLA MFI (10 uM),HLA-B*5701,0
same,Relative HLA MFI (100 uM),HLA-B*5701,0
ERILSTYLGR [ER10],Relative HLA MFI (10 uM),HLA-A*0301,0.09869
same,Relative HLA MFI (100 uM),HLA-A*0301,0.5827
HPVHAGPIA [HA9],Relative HLA MFI (10 uM),[1]; [7],0.57
same,Relative HLA MFI (100 uM),[1]; [7],0.8723
same,Relative HLA MFI (10 uM),HLA-B*0702,0.3541
same,Relative HLA MFI (100 uM),HLA-B*0702,0.8359
IVLPEKDSW [IW9 (RT)],Relative HLA MFI (10 uM),HLA-B*5701,0.4821
same,Relative HLA MFI (100 uM),HLA-B*5701,0.7481
LGHGVSIEW [LW9],Relative HLA MFI (10 uM),HLA-B*5701,0
same,Relative HLA MFI (100 uM),HLA-B*5701,0.005429
RIRTWKSLVK [RK10],Relative HLA MFI (10 uM),HLA-A*0301,0.3155
same,Relative HLA MFI (100 uM),HLA-A*0301,0.8607
FPVTPQVPL [FL9 (Nef)],Relative HLA MFI (10 uM),HLA-B*0702,0.348
same,Relative HLA MFI (100 uM),HLA-B*0702,0.9848
ISKKAKGWF [IF9],Relative HLA MFI (10 uM),HLA-B*5701,0.4093
same,Relative HLA MFI (100 uM),HLA-B*5701,0.557
HMYISKKAK [HK9],Relative HLA MFI (10 uM),HLA-A*0301,0.2644
same,Relative HLA MFI (100 uM),HLA-A*0301,0.8145
KRQEILDLWVY [KY11],Relative HLA MFI (10 uM),[1]; [9],0.9832
same,Relative HLA MFI (100 uM),[1]; [9],0.7286
SPAIFQSSM [SM9],Relative HLA MFI (10 uM),HLA-B*0702,0
same,Relative HLA MFI (100 uM),HLA-B*0702,0.1337
AVFIHNFKRK [AK10],Relative HLA MFI (10 uM),HLA-A*0301,0.265
same,Relative HLA MFI (100 uM),HLA-A*0301,1
RPAEPVPLQL [RL10],Relative HLA MFI (10 uM),HLA-B*0702,0.196
same,Relative HLA MFI (100 uM),HLA-B*0702,0.848
HTQGYFPDWQ [HQ10],Relative HLA MFI (10 uM),HLA-B*5701,0.03149
same,Relative HLA MFI (100 uM),HLA-B*5701,0.01629
NSSKVSQNY [NNY9],Relative HLA MFI (10 uM),[1]; [7],0.1772
same,Relative HLA MFI (100 uM),[1]; [7],0.3643
RRGWEVLKY [RY9],Relative HLA MFI (10 uM),[1]; [10],0
same,Relative HLA MFI (100 uM),[1]; [10],0.009443
same,Relative HLA MFI (10 uM),[1]; [4],0.3667
same,Relative HLA MFI (100 uM),[1]; [4],0.5754
TVLDVGDAY [TY9],Relative HLA MFI (10 uM),[1]; [7],0.5668
same,Relative HLA MFI (100 uM),[1]; [7],0.7722
QELKNSAVSL [QL10],Relative HLA MFI (10 uM),[1]; [8],0.2787
same,Relative HLA MFI (100 uM),[1]; [8],0.6638
PPIPVGDIY [PY9],Relative HLA MFI (10 uM),[1]; [7],0.5376
same,Relative HLA MFI (100 uM),[1]; [7],0.4339
